According to US20100061928A1, “LABELLED ANALOGUES OF HALOBENZAMIDES AS RADIOPHARMACEUTICALS” (Institut National De La Sante et De La Recherche Medicale …, priority 2006, published 2010):
Structures can show the parent of a compound that is named as a salt.

Columns and labels:
[1] = system: tumour; assay: Dosimetry with regard to the tumour (MIRD programme, extrapolated to ^131I)
[2] = Elimination of the molecules: cumulative urinary and faecal excretion 0-72 hours; assay type: in vivo, mouse; settings: for Faecal elimination 0-72 hours (Faeces) / Urinary and faecal elimination 0-72 hours (Total) / Urinary elimination 0-72 hours (Urine): cumulative excretion 0-72 hours; for Faecal elimination 0-72 hours (Faeces) / Urinary elimination 0-72 hours (Urine): mice in metabolic cages; for Urinary and faecal elimination 0-72 hours (Total): urine + faeces
[3] = system: grafted B16 F0 murine melanoma tumour; assay: Biodistribution of the ^125I-labelled molecules in the melanoma-bearing mouse (autoradiography of whole-body sections); settings: for Biodistribution, Mean, B 16 / Biodistribution, radioactivity concentration in B 16, Mean: B 16 tumour
Procedure: The distribution of the radioactivity of the various compounds in the body (tumour and other organs) is quantified using an Ambis 4000 image analyzer on sections of whole animals. […] All the in vivo experimentation is carried out within the context defined by French legislation relating to animal experimentation.
The B16 F0 melanoma cells are provided by the ATCC and cultured in monolayers in culture medium (MEM, Invitrogen) supplemented with 10% foetal calf serum and antibiotics. The cultures are maintained by subculturing after trypsinization. The cells of the first passages are frozen and stored in liquid nitrogen. For the transplanting, the cells in culture at confluence are detached by trypsinization and washed with phosphate buffer (PBS).
The distribution of the radioactivity present in the sections is analyzed using an AMBIS 4000 analyzer (Scanalytics, CSPI, San Diego, Calif.), which is a proportional counter with a multiwire chamber validated and calibrated beforehand for the monitoring of iodine in the mouse. The measurements require acquisition times of 1000 minutes. […] The value of radioactivity per unit of surface area (cpm/mm^2) is converted to concentration (kBq/g) and expressed as percentage of the injected dose/g of tissue (% ID/g).

[4] = 1 H after i.v., 125I-labelled, dose = 1.09 MBq
[5] = 3 H after i.v., 125I-labelled, dose = 1.09 MBq
[6] = 24 H after i.v., 125I-labelled, dose = 1.09 MBq
[7] = 72 H after i.v., 125I-labelled, dose = 1.09 MBq

## CCN(CC)CCNC(=O)c1ccc(I)cc1 [BZA, N-(2-diethylaminoethyl)-4-iodobenzamide, reference compound]
[1]; extrapolated to 131I labelling
  Effective period: 17.8 h
[1]; from biodistribution data
  Biological period: 19.6 hours
[2]
  Faecal elimination 0-72 hours (Faeces): 4.8%
  Urinary and faecal elimination 0-72 hours (Total): 87.9%
  Urinary elimination 0-72 hours (Urine): 83.1%
[2]; urinary versus faecal, 0-72 hours
  elimination route (in words): predominantly in the urine

## CCN(CC)CCNC(=O)c1cccc2cc3cc(I)ccc3nc12 [compound 111, N-(2-diethylaminoethyl)-7-iodoacridine-4-carboxamide dihydrochloride]
[2]
  Faecal elimination 0-72 hours (Faeces): 23.2%
  Urinary and faecal elimination 0-72 hours (Total): 31.7%
  Urinary elimination 0-72 hours (Urine): 8.5%
[3]; 1 H
  Biodistribution, Mean, B 16: 4.78
  Biodistribution, Mean, GB: 43.71
  Biodistribution, Mean, Ic: 23.92
  Biodistribution, Mean, Sc: 10.16
  Biodistribution, Mean, blood: 0.75
  Biodistribution, Mean, brain: 0.28
  Biodistribution, Mean, kidney: 3.07
  Biodistribution, Mean, liver: 5.38
  Biodistribution, Mean, lungs: 1.70
  Biodistribution, Mean, pancreas: 1.38
  Biodistribution, Mean, spleen: 3.11
  Biodistribution, Mean, thyroid: 21.00
  Biodistribution, Mean, uvea: 3.83
[3]; 3 H
  Biodistribution, Mean, B 16: 3.98
  Biodistribution, Mean, Ic: 30.20
  Biodistribution, Mean, Sc: 9.56
  Biodistribution, Mean, blood: 0.54
  Biodistribution, Mean, brain: 0.27
  Biodistribution, Mean, kidney: 1.27
  Biodistribution, Mean, liver: 3.62
  Biodistribution, Mean, lungs: 0.88
  Biodistribution, Mean, pancreas: 0.70
  Biodistribution, Mean, spleen: 1.29
  Biodistribution, Mean, uvea: 4.69
[3]; 6 H
  Biodistribution, Mean, B 16: 4.57
  Biodistribution, Mean, GB: 12.79
  Biodistribution, Mean, Ic: 28.54
  Biodistribution, Mean, Sc: 6.06
  Biodistribution, Mean, blood: 0.42
  Biodistribution, Mean, brain: 0.11
  Biodistribution, Mean, kidney: 0.77
  Biodistribution, Mean, liver: 2.16
  Biodistribution, Mean, lungs: 0.59
  Biodistribution, Mean, spleen: 0.87
  Biodistribution, Mean, uvea: 3.51
[3]; 24 H
  Biodistribution, Mean, B 16: 2.77
  Biodistribution, Mean, Ic: 1.83
  Biodistribution, Mean, Sc: 0.73
  Biodistribution, Mean, liver: 0.48
  Biodistribution, Mean, thyroid: 40.73
  Biodistribution, Mean, uvea: 3.45
[3]; 72 H
  Biodistribution, Mean, B 16: 1.67
  Biodistribution, Mean, Ic: 0.75
  Biodistribution, Mean, liver: 0.42
  Biodistribution, Mean, thyroid: 38.07
  Biodistribution, Mean, uvea: 1.96
[3]; muscle, 1 H
  Biodistribution, Mean, muscle: 0.30

## CCCN(CCC)CCCCNC(=O)c1cnc2cc(I)ccc2n1 [compound 144, N-(4-dipropylaminobutyl)-6-iodoquinoxaline-2-carboxamide dihydrochloride]
[2]
  Faecal elimination 0-72 hours (Faeces): 34.8%
  Urinary and faecal elimination 0-72 hours (Total): 80.5%
  Urinary elimination 0-72 hours (Urine): 45.7%
[3]; [4]
  Biodistribution, radioactivity concentration in B 16, Mean: 14.69 % ID/g
  Biodistribution, radioactivity concentration in Ic, Mean: 27.28 % ID/g
  Biodistribution, radioactivity concentration in Sc, Mean: 24.11 % ID/g
  Biodistribution, radioactivity concentration in blood, Mean: 1.85 % ID/g
  Biodistribution, radioactivity concentration in brain, Mean: 0.75 % ID/g
  Biodistribution, radioactivity concentration in kidney, Mean: 24.42 % ID/g
  Biodistribution, radioactivity concentration in liver, Mean: 12.84 % ID/g
  Biodistribution, radioactivity concentration in lungs, Mean: 5.81 % ID/g
  Biodistribution, radioactivity concentration in pancreas, Mean: 23.88 % ID/g
  Biodistribution, radioactivity concentration in spleen, Mean: 18.70 % ID/g
  Biodistribution, radioactivity concentration in uvea, Mean: 28.75 % ID/g
[3]; [5]
  Biodistribution, radioactivity concentration in B 16, Mean: 44.92 % ID/g
  Biodistribution, radioactivity concentration in Ic, Mean: 29.12 % ID/g
  Biodistribution, radioactivity concentration in Sc, Mean: 34.86 % ID/g
  Biodistribution, radioactivity concentration in blood, Mean: 1.61 % ID/g
  Biodistribution, radioactivity concentration in brain, Mean: 0.46 % ID/g
  Biodistribution, radioactivity concentration in kidney, Mean: 17.73 % ID/g
  Biodistribution, radioactivity concentration in liver, Mean: 7.84 % ID/g
  Biodistribution, radioactivity concentration in lungs, Mean: 4.91 % ID/g
  Biodistribution, radioactivity concentration in pancreas, Mean: 13.06 % ID/g
  Biodistribution, radioactivity concentration in spleen, Mean: 6.08 % ID/g
  Biodistribution, radioactivity concentration in thyroid, Mean: 60.78 % ID/g
  Biodistribution, radioactivity concentration in uvea, Mean: 41.75 % ID/g
[3]; [6]
  Biodistribution, radioactivity concentration in B 16, Mean: 37.46 % ID/g
  Biodistribution, radioactivity concentration in thyroid, Mean: 44.74 % ID/g
  Biodistribution, radioactivity concentration in uvea, Mean: 32.62 % ID/g
[3]; [7]
  Biodistribution, radioactivity concentration in B 16, Mean: 24.02 % ID/g
  Biodistribution, radioactivity concentration in uvea, Mean: 23.28 % ID/g
[3]; at 72 hours (FIG. 1B)
  tumour concentration, times higher than with BZA: 31 times
[3]; from the first hour
  tumour concentration, % of the injected dose per gram of tumour: 14.7 % ID/g
[3]; muscle, 3 H after i.v., 125I-labelled, dose = 1.09 MBq
  Biodistribution, radioactivity concentration in muscle, Mean: 0.79 % ID/g
